From patent US11401270B2, “Alcoxyamino derivatives for treating pain and pain related conditions” (ESTEVE PHARMACEUTICALS, S.A., priority 2017, dated 2022)

Molecular target: Human α2δ-1 subunit of Cav2.2 calcium channel (Homo sapiens (Human), UniProt P54289)
Assay: Binding Assay to Human α2δ-1 Subunit of Cav2.2 Calcium Channel
Conditions: Table 1; human α2δ-1 enriched membranes, 15 nM [3H]-Gabapentin; read-out: Ki(nM) alpha2delta Hum
Experimental: Binding Assay to Human α2δ-1 Subunit of Cav2.2 Calcium Channel.
NSB (non specific binding) was measured by adding 10 μM pregabalin. The binding of the test compound was measured in five different concentrations. After 60 min incubation at 27° C., binding reaction was terminated by filtering through Multiscreen GF/C (Millipore) presoaked in 0.5% polyethyleneimine in Vacuum Manifold Station, followed by 3 washes with ice-cold filtration buffer containing 50 mM Tris-HCl, pH 7.4.
Filter plates were dried at 60° C. for 1 hour and 30 μl of scintillation cocktail were added to each well before radioactivity reading.

Human α2δ-1 subunit of Cav2.2 calcium channel, sequence (P54289 25-1103): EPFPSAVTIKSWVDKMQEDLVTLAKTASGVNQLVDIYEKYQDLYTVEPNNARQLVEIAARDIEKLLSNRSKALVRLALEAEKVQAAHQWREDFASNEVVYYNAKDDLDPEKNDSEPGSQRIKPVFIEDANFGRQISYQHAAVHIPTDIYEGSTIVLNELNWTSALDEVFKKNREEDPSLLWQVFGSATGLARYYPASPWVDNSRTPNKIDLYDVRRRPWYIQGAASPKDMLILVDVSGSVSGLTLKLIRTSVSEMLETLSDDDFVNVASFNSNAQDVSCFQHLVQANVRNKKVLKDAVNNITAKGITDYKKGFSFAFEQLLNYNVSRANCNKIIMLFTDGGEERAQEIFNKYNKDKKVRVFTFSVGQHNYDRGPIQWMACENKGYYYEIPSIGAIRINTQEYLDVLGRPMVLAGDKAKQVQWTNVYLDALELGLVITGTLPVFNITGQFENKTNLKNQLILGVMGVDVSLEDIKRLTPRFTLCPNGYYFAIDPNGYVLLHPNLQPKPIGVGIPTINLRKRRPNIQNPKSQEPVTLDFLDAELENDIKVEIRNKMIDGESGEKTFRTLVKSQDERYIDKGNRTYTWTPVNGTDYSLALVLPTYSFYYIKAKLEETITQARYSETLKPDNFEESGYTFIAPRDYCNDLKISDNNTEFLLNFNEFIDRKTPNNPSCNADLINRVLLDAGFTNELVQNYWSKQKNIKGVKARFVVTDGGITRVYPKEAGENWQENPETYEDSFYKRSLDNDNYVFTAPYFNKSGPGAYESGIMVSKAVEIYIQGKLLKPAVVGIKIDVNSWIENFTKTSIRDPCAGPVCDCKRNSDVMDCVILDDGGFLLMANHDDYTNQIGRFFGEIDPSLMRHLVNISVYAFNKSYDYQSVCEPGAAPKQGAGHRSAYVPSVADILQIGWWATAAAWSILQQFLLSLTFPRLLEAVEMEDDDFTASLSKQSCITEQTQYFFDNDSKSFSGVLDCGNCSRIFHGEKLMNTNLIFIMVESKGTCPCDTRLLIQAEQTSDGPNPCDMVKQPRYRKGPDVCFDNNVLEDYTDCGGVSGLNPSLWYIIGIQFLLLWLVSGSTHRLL

| SMILES | Ki |
| --- | --- |
| CCNC1CCCN(c2cccc(O[C@@H](CCNC)c3cccs3)c2)C(=O)C1 (single isomer, unassigned) [Example 118a] | 500 to 3000 nM |
| CCNC1CCCN(c2cccc(O[C@@H](CCNC)c3cccs3)c2)C(=O)C1 (single isomer, unassigned) [Example 118b] | 500 to 3000 nM |
| CNCCC(Oc1cccc(C(=O)N2CCCN(C)CC2)c1)c1cccs1 (stereo not shown) [Example 2, (4-Methyl-1,4-diazepan-1-yl)(3-(3-(methylamino)-1-(thiophen-2-yl)propoxy)phenyl)methanone] | 500 to 3000 nM |
| CNCCC(Oc1cccc(C(=O)N2CCN(C)c3ccccc3C2)c1)c1cccs1 (stereo not shown) [Example 4, (1-Methyl-1,2,3,5-tetrahydro-4H-benzo[e][1,4]diazepin-4-yl)(3-(3-(methylamino)-1-(thiophen-2-yl)propoxy)phenyl)methanone] | 500 to 3000 nM |
| CNCCC(Oc1cccc(N2CCN(C)c3ccccc3C2)c1)c1cccs1 (stereo not shown) [Example 9, N-methyl-3-(3-(1-methyl-1,2,3,5-tetrahydro-4H-benzo[e][1,4]diazepin-4-yl)phenoxy)-3-(thiophen-2-yl)propan-1-amine] | > 3000 nM |
| CCNCC(=O)N1CCCN(c2cccc(OC(CCNC)c3cccs3)c2)CC1 (stereo not shown) [Example 11, 2-(Ethylamino)-1-(4-(3-(3-(methylamino)-1-(thiophen-2-yl)propoxy)phenyl)-1,4-diazepan-1-yl)ethan-1-one] | 500 to 3000 nM |
| CNCCC(OCc1cccc(N2CCCCCC2=O)c1)c1cccs1 (stereo not shown) [Example 16, 1-(3-((3-(Methylamino)-1-(thiophen-2-yl)propoxy)methyl)phenyl)azepan-2-one] | 500 to 3000 nM |
| CNCCC(Oc1cccc(N2CCCCCC2=O)c1)c1cccs1 (stereo not shown) [Example 17, 1-(3-(3-(Methylamino)-1-(thiophen-2-yl)propoxy)phenyl)azepan-2-one] | > 3000 nM |
| CCN[C@@H]1CCCCN(c2cccc(O[C@@H](CCNC)c3cccs3)c2)C1=O [Example 18, (R)-3-(ethylamino)-1-(3-((S)-3-(methylamino)-1-(thiophen-2-yl)propoxy)phenyl)azepan-2-one] | 500 to 3000 nM |
| CCN[C@H]1CCCCN(c2cccc(O[C@@H](CCNC)c3cccs3)c2)C1=O [Example 19, (S)-3-(ethylamino)-1-(3-((S)-3-(methylamino)-1-(thiophen-2-yl)propoxy)phenyl)azepan-2-one] | 500 to 3000 nM |
| CCNC[C@H]1CC(=O)N(c2cccc(O[C@@H](CCNC)c3ccccc3)c2)CCN1C [Example 22, (R)-7-((ethylamino)methyl)-1-methyl-4-(3-((S)-3-(methylamino)-1-phenylpropoxy)phenyl)-1,4-diazepan-5-one] | > 3000 nM |
| CCNC[C@@H]1CC(=O)N(c2cccc(O[C@@H](CCNC)c3ccccc3)c2)CCN1C [Example 23, (S)-7-((ethylamino)methyl)-1-methyl-4-(3-((S)-3-(methylamino)-1-phenylpropoxy)phenyl)-1,4-diazepan-5-one] | > 3000 nM |
| CCNC[C@H]1CN(C)CCN(c2cccc(O[C@@H](CCNC)c3ccccc3)c2)C1=O [Example 24, (S)-6-((ethylamino)methyl)-1-methyl-4-(3-((S)-3-(methylamino)-1-phenylpropoxy)phenyl)-1,4-diazepan-5-one] | > 3000 nM |
| CNCCC(OCc1cccc(N2CCN(C)c3ccccc3C2=O)c1)c1ccccc1F (stereo not shown) [Example 39, 4-(3-((1-(2-Fluorophenyl)-3-(methylamino)propoxy)methyl)phenyl)-1-methyl-1,2,3,4-tetrahydro-5H-benzo[e][1,4]diazepin-5-one] | 100 to 500 nM |
| CCNCCC(OCc1cccc(N2CCN(C)c3ccccc3C2=O)c1)c1ccccc1 (stereo not shown) [Example 43, 4-(3-((3-(Ethylamino)-1-phenylpropoxy)methyl)phenyl)-1-methyl-1,2,3,4-tetrahydro-5H-benzo[e][1,4]diazepin-5-one] | 100 to 500 nM |
| CN1CCN(c2cccc(COC(CCNCCF)c3ccccc3)c2)C(=O)c2ccccc21 (stereo not shown) [Example 44, 4-(3-((3-((2-Fluoroethyl)amino)-1-phenylpropoxy)methyl)phenyl)-1-methyl-1,2,3,4-tetrahydro-5H-benzo[e][1,4]diazepin-5-one] | 500 to 3000 nM |

The remaining lines, values ahead:

| Ki | SMILES |
| --- | --- |
| 500 to 3000 nM | CNCCC(Oc1cccc(N2CCCN(C)CC2)c1)c1ccccc1 (stereo not shown) [Example 5, N-methyl-3-(3-(4-methyl-1,4-diazepan-1-yl)phenoxy)-3-phenylpropan-1-amine] |
| 100 to 500 nM | CNCCC(Oc1cccc(N2CCCN(C)CC2)c1)c1cccs1 (stereo not shown) [Example 8, N-methyl-3-(3-(4-methyl-1,4-diazepan-1-yl)phenoxy)-3-(thiophen-2-yl)propan-1-amine] |
| > 3000 nM | CNCC[C@H](OCc1cccc(N2CCCN(C)CC2)c1)c1ccccc1 [Example 12, (S)-N-methyl-3-((3-(4-methyl-1,4-diazepan-1-yl)benzyl)oxy)-3-phenylpropan-1-amine] |
| 500 to 3000 nM | CNCC[C@@H](OCc1cccc(N2CCCN(C)CC2)c1)c1ccccc1 [Example 13, (R)-N-methyl-3-((3-(4-methyl-1,4-diazepan-1-yl)benzyl)oxy)-3-phenylpropan-1-amine] |
| 100 to 500 nM | CNCC[C@@H](OCc1cccc(N2CCN(C)c3ccccc3C2=O)c1)c1cccs1 [Example 14, (R)-1-methyl-4-(3-((3-(methylamino)-1-(thiophen-2-yl)propoxy)methyl)phenyl)-1,2,3,4-tetrahydro-5H-benzo[e][1,4]diazepin-5-one] |
| > 3000 nM | CNCC[C@H](OCc1cccc(N2CCN(C)c3ccccc3C2=O)c1)c1cccs1 [Example 15, (S)-1-methyl-4-(3-((3-(methylamino)-1-(thiophen-2-yl)propoxy)methyl)phenyl)-1,2,3,4-tetrahydro-5H-benzo[e][1,4]diazepin-5-one] |
| > 3000 nM | CCNC[C@@H]1CN(C)CCN(c2cccc(O[C@@H](CCNC)c3ccccc3)c2)C1=O [Example 25, (R)-6-((ethylamino)methyl)-1-methyl-4-(3-((S)-3-(methylamino)-1-phenylpropoxy)phenyl)-1,4-diazepan-5-one] |
| 500 to 3000 nM | CNCCC(OCc1cccc(N2CCN(C)c3cccnc3C2=O)c1)c1ccccc1 (stereo not shown) [Example 26, 1-Methyl-4-(3-((3-(methylamino)-1-phenylpropoxy)methyl)phenyl)-1,2,3,4-tetrahydro-5H-pyrido[3,2-e][1,4]diazepin-5-one] |
| 100 to 500 nM | CNCCC(OCc1cccc(N2CCN(C)c3cc(F)cnc3C2=O)c1)c1ccccc1 (stereo not shown) [Example 27, 8-Fluoro-1-methyl-4-(3-((3-(methylamino)-1-phenylpropoxy)methyl)phenyl)-1,2,3,4-tetrahydro-5H-pyrido[3,2-e][1,4]diazepin-5-one] |
| 500 to 3000 nM | CNCCC(OCc1cccc(N2CCN(C)c3cnccc3C2=O)c1)c1ccccc1 (stereo not shown) [Example 28, 1-Methyl-4-(3-((3-(methylamino)-1-phenylpropoxy)methyl)phenyl)-1,2,3,4-tetrahydro-5H-pyrido[3,4-e][1,4]diazepin-5-one] |
| > 3000 nM | CNCC[C@H](OCc1cccc(N2C[C@@H]3CCCN3c3ccccc3C2=O)c1)c1ccccc1 [Example 30, (S)-5-(3-(((S)-3-(methylamino)-1-phenylpropoxy)methyl)phenyl)-1,2,3,3a,4,5-hexahydro-6H-benzo[f]pyrrolo[1,2-a][1,4]diazepin-6-one] |
| 500 to 3000 nM | CNCC[C@@H](OCc1cccc(N2C[C@@H]3CCCN3c3ccccc3C2=O)c1)c1ccccc1 [Example 31, (S)-5-(3-(((R)-3-(methylamino)-1-phenylpropoxy)methyl)phenyl)-1.2,3,3a,4,5-hexahydro-6H-benzo[f]pyrrolo[1,2-a][1,4]diazepin-6-one] |
| > 3000 nM | CNCCC(Oc1cccc(N2CCN(C)CCC2=O)c1)c1ccccc1 (stereo not shown) [Example 32, 1-Methyl-4-(3-(3-(methylamino)-1-phenylpropoxy)phenyl)-1,4-diazepan-5-one] |
| > 3000 nM | CNCCC(Oc1cccc(N2CCCCCC2=O)c1)c1ccccc1 (stereo not shown) [Example 33, 1-(3-(3-(Methylamino)-1-phenylpropoxy)phenyl)azapan-2-one] |
| 500 to 3000 nM | CNCCC(OCc1cccc(N2CCCCCC2=O)c1)c1ccccc1 (stereo not shown) [Example 35, 1-(3-((3-(Methylamino)-1-phenylpropoxy)methyl)phenyl)azepan-2-one] |
| 500 to 3000 nM | CNCCC(OCc1cccc(N2CCCN(C)CC2=O)c1)c1ccccc1 (stereo not shown) [Example 36, 4-Methyl-1-(3-((3-(methylamino)-1-phenylpropoxy)methyl)phenyl)-1,4-diazepan-2-one] |
| 500 to 3000 nM | CNCCC(OCc1cccc(N2CCN(C)c3ccccc3C2=O)c1)c1ccccc1 (stereo not shown) [Example 38, 1-Methyl-4-(3-((3-(methylamino)-1-phenylpropoxy)methyl)phenyl)-1,2,3,4-tetrahydro-5H-benzo[e][1,4]diazepin-5-one] |
| 500 to 3000 nM | CNCCC(OCc1cccc(N2CCN(C)c3ccccc3C2=O)c1)c1cccc(F)c1 (stereo not shown) [Example 40, 4-(3-((1-(3-Fluorophenyl)-3-(methylamino)propoxy)methyl)phenyl)-1-methyl-1,2,3,4-tetrahydro-5H-benzo[e][1,4]diazepin-5-one] |
| > 3000 nM | CNCC[C@@H](OCc1cccc(N2CCN(C)c3ccccc3C2=O)c1)c1cccc(F)c1 [Example 41, (R)-4-(3-((1-(3-fluorophenyl)-3-(methylamino)propoxy)methyl)phenyl)-1-methyl-1,2,3,4-tetrahydro-5H-benzo[e][1,4]diazepin-5-one] |
| 500 to 3000 nM | CNCC[C@H](OCc1cccc(N2CCN(C)c3ccccc3C2=O)c1)c1cccc(F)c1 [Example 42, (S)-4-(3-((1-(3-fluorophenyl)-3-(methylamino)propoxy)methyl)phenyl)methyl-1 2,3,4-tetrahydro-5H-benzo[e][1,4]diazepin-5-one] |
| 500 to 3000 nM | CNCCC(OCc1cccc(N2CCN(C)c3ncccc3C2=O)c1)c1ccccc1 (stereo not shown) [Example 45, 1-Methyl-4-(3-((3-(methylamino)-1-phenylpropoxy)methyl)phenyl)-1,2,3,4-tetrahydro-5H-pyrido[2,3-e][1,4]diazepin-5-one] |
